Laboratory results published in ChEMBL document CHEMBL1201862, “PubChem BioAssay data set” (2004).
Activity calls are given as the source filed them.

Columns and labels:
[1] = molecular target: T1, Short transient receptor potential channel 4 (Mus musculus, UniProt Q9QUQ5); test: calcium entry via TRPC4 opening agents – cell-based, HEK293 TRPC4/mu-opioid, Fluo-4 calcium, dose response (AID 434937); assay type: functional
T1 sequence (Q9QUQ5 whole entry): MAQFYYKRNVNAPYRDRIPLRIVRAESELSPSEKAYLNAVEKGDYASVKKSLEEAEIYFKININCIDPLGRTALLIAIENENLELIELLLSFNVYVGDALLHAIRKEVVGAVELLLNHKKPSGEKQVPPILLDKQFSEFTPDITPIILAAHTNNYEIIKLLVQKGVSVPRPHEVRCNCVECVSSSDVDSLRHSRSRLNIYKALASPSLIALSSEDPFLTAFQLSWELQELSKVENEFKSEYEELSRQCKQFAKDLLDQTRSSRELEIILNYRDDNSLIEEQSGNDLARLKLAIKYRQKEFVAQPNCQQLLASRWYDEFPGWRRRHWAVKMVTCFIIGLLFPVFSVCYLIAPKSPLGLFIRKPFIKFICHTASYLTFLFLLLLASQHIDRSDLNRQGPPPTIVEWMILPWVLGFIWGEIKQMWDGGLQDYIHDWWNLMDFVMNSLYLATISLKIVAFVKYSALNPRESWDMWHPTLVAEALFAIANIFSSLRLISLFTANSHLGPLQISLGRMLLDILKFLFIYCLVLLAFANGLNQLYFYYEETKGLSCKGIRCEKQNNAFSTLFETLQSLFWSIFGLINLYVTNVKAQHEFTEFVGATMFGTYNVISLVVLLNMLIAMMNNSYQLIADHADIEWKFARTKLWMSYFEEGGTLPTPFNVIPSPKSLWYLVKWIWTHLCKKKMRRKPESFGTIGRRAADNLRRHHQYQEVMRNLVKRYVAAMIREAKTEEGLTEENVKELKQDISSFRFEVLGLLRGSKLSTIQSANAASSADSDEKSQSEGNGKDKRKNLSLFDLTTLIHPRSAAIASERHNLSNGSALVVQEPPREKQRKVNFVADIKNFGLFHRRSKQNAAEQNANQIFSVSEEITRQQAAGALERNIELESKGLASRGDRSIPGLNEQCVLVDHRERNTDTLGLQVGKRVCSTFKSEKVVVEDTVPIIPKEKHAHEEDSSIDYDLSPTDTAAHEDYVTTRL

[2] = molecular target: Delta-type opioid receptor (Homo sapiens, UniProt P41143); test: Counterscreen for agonists of heterodimerization of the mu 1 (OPRM1) and delta 1 (OPRD1) opioid receptors: Luminescence-based cell-based high throughput dose response assay to identify agonists of OPRD1 homodimerization. [Related pubchem assays (depositor defined):AID504326, AID504355, AID504692, AID504904, AID504905]; assay type: functional
Mu-type opioid receptor = Mu-type opioid receptor (Homo sapiens, UniProt P35372); test: Counterscreen for agonists of heterodimerization of the mu 1 (OPRM1) and delta 1 (OPRD1) opioid receptors: Luminescence-based cell-based high throughput dose response assay to identify agonists of OPRM1 homodimerization.; assay type: functional;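 further: U2OS cells expressing OPRM1 and beta-arrestin as split beta-galactosidase partners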
[3] = molecular target: 5-hydroxytryptamine receptor 5A (Homo sapiens, UniProt P47898); test: Counterscreen for agonists of OPRM1-OPRD1 heterodimerization: luminescence-based cell-based high throughput dose response assay to identify agonists of 5-hydroxytryptamine (serotonin) 5A receptor (HTR5A). [Related pubchem assays (depositor defined):AID504326, AID504355, AID504692, AID504904, AID504905]; assay type: functional
[4] = molecular target: T2, DNA repair protein RAD52 homolog (Homo sapiens, UniProt P43351); assay type: functional, biochemical
T2 sequence (P43351 whole entry): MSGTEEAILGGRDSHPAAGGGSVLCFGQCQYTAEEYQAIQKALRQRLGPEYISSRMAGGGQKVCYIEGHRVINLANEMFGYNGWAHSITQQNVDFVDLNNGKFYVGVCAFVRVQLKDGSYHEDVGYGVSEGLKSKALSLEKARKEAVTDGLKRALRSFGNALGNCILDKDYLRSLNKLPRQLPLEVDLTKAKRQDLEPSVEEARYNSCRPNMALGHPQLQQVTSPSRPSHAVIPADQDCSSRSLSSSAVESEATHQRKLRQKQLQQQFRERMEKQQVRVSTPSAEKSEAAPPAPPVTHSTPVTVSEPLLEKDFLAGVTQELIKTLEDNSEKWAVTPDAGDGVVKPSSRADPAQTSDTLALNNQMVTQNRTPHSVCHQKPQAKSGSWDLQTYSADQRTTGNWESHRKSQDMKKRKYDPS

Caspase-3 = molecular target: T3, Caspase-3 (Homo sapiens, UniProt P42574); assay type: functional;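 further: Dose-response selectivity test against caspase-3 for candidate inhibitors of sentrin-specific proteases (SENPs)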
T3 sequence (P42574 whole entry): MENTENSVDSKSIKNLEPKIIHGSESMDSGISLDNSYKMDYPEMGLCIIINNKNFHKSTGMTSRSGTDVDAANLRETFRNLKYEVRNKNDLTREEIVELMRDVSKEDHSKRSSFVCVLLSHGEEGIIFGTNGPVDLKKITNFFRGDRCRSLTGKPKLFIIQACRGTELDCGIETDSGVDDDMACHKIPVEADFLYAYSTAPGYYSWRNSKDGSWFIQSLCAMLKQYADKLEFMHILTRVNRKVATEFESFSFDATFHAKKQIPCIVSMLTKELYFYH

[5] = molecular target: T4, Sentrin-specific protease 7 (Homo sapiens, UniProt Q9BQF6); assay type: functional;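 further: Luminescence-based dose-response confirmation of ultra-high-throughput screening hits, measuring inhibition of SENP7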
T4 sequence (Q9BQF6 whole entry): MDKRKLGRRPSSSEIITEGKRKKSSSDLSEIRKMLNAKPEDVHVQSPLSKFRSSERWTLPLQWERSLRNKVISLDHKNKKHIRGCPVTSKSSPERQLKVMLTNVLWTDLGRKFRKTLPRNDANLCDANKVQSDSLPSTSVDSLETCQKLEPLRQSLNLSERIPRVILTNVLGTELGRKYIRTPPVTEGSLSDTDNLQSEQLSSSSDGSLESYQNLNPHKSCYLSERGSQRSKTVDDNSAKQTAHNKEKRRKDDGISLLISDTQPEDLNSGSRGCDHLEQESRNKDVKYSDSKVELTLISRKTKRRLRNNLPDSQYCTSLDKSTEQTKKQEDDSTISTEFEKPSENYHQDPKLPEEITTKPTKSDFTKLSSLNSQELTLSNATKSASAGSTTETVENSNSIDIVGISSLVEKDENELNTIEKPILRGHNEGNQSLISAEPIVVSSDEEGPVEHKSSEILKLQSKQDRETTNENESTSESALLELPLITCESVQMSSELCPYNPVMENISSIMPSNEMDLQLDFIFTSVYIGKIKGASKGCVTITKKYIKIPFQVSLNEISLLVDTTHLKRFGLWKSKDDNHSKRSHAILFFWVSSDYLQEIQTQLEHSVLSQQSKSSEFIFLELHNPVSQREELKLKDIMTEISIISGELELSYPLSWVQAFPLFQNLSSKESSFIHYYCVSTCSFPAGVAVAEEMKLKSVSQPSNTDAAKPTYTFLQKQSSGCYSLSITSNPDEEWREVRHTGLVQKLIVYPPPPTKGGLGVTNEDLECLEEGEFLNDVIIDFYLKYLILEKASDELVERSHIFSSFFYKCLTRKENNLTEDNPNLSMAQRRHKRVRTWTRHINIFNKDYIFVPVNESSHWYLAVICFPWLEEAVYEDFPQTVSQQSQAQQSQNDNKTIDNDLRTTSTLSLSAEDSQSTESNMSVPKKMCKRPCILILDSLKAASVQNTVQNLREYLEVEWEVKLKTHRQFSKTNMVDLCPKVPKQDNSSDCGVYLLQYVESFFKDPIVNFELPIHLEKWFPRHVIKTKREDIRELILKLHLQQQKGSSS

[6] = molecular target: T5, Sentrin-specific protease 6 (Homo sapiens, UniProt Q9GZR1); assay type: functional;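 further: Luminescence-based dose-response confirmatory assay of SENP6 inhibition, following up an ultra-high-throughput screen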
T5 sequence (Q9GZR1 whole entry): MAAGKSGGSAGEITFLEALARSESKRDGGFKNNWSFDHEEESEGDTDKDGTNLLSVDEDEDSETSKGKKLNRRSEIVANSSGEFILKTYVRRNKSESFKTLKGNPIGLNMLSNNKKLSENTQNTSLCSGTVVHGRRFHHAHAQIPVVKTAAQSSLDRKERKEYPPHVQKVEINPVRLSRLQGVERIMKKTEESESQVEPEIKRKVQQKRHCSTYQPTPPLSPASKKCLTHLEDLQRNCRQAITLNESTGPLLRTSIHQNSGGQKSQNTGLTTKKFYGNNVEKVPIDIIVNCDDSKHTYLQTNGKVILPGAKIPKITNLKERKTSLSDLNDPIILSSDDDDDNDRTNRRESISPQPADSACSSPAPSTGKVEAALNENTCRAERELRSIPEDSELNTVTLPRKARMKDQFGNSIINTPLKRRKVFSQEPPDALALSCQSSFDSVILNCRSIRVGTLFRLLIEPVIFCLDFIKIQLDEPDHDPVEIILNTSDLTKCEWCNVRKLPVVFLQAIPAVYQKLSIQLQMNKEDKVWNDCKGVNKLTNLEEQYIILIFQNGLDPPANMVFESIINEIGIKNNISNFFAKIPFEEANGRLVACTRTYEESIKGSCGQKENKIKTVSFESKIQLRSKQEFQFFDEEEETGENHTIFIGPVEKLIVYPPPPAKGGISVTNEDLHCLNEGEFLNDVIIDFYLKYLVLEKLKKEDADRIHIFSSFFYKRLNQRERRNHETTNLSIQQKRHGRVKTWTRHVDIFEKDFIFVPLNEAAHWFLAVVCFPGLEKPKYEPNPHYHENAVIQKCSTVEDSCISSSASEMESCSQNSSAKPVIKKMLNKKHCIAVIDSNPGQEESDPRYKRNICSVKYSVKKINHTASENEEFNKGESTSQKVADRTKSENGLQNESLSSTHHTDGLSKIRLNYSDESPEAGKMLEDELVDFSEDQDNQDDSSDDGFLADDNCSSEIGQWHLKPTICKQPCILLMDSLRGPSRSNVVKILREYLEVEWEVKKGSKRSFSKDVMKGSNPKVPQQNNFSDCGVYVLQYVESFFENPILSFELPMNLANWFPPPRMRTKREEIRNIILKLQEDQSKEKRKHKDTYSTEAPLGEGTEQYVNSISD

[7] = molecular target: T6, Sentrin-specific protease 8 (Homo sapiens, UniProt Q96LD8); assay type: functional;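 further: luminescence read-out of SENP8 inhibition, dose-response confirmation following an ultra-high-throughput screen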
T6 sequence (Q96LD8 whole entry): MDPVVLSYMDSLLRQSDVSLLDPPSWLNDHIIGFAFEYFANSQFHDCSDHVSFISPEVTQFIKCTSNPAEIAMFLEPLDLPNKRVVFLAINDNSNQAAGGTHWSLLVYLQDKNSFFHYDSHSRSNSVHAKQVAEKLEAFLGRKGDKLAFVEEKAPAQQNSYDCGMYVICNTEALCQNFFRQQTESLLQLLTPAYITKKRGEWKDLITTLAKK

[8] = viability of uninfected HEp-2 cells – cell-based, HTS, cytotoxicity control for RSV inhibitor project, dose response (AID 2410); assay type: functional; conditions: human respiratory syncytial virus
Paired box protein Pax-8 = Paired box protein Pax-8 (Homo sapiens, UniProt Q06710); test: PAX8 transcriptional activity inhibition in RMG-I – RMG-I cells, luciferase, cherry-pick, dose response (AID 687027); assay type: functional, cell-based;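 further: luciferase reporter driven by Pax8 target thyroperoxidase promoter measured by SteadyGlo luminescence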
[9] = IGROV1 cell killing – plate reader, dry powder samples, PAX8 inhibitor project, dose response (AID 743043); assay type: functional, cell-based; conditions: IGROV-1
Cytochrome P450 3A4 = Cytochrome P450 3A4 (Homo sapiens, UniProt P08684);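 further: CYP3A4 tested as one member of a cytochrome P450 panel screen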
[10] = molecular target: T7, Carboxy-terminal domain RNA polymerase II polypeptide A small phosphatase 1 (Homo sapiens, UniProt Q9GZU7); test: CTDSP1 inhibitors, concentration-response, biochemical, absorbance readout, ultra-high-throughput screen actives (AID 540297); assay type: functional
T7 sequence (Q9GZU7 whole entry): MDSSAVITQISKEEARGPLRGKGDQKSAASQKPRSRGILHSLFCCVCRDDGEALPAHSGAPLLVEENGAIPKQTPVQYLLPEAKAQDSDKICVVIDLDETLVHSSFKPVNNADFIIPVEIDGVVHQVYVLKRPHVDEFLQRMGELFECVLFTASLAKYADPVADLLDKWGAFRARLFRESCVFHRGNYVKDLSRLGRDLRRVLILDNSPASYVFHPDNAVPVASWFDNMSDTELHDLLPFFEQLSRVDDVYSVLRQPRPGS

[11] = molecular target: T8, Probable nicotinate-nucleotide adenylyltransferase (Staphylococcus aureus (strain N315), UniProt P65502); assay type: functional, Staphylococcus aureus subsp. aureus N315;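 on IC50 Mean: confirmatory dose-response retesting of NadD inhibitor hits first found in an ultra-high-throughput screen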
[12] = molecular target: T8, Probable nicotinate-nucleotide adenylyltransferase; assay type: functional, Staphylococcus aureus subsp. aureus N315; conditions: read-out: IC50_Mean

T8 sequence (P65502 whole entry): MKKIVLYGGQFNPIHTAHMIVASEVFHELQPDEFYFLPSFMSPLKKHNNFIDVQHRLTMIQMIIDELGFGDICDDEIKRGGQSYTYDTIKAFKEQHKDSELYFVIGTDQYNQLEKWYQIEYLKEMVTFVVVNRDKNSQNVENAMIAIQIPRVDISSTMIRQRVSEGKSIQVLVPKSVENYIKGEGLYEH
Chain of Mu-type opioid receptor (P35372 whole entry): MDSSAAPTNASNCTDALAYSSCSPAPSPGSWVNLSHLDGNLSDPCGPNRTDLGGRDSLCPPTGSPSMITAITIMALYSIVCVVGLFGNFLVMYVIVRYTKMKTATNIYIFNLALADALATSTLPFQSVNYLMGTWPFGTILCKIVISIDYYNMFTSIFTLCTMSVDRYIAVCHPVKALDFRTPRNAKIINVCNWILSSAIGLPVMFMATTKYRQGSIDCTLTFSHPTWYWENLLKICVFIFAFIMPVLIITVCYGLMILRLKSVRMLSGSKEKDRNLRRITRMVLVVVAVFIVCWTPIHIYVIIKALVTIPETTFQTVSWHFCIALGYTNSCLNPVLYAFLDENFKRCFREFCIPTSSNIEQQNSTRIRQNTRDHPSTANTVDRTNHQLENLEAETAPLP
Chain of 5-hydroxytryptamine receptor 5A (P47898 whole entry): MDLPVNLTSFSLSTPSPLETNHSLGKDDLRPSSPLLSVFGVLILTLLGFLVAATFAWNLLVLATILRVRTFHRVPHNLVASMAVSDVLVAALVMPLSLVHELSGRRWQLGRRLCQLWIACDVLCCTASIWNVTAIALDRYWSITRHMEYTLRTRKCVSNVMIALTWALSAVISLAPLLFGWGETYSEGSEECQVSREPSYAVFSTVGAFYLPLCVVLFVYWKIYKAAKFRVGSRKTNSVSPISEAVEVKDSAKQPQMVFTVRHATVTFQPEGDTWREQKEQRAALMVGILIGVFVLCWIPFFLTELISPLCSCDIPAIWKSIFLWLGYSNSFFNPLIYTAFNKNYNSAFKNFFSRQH
Chain of Paired box protein Pax-8 (Q06710 whole entry): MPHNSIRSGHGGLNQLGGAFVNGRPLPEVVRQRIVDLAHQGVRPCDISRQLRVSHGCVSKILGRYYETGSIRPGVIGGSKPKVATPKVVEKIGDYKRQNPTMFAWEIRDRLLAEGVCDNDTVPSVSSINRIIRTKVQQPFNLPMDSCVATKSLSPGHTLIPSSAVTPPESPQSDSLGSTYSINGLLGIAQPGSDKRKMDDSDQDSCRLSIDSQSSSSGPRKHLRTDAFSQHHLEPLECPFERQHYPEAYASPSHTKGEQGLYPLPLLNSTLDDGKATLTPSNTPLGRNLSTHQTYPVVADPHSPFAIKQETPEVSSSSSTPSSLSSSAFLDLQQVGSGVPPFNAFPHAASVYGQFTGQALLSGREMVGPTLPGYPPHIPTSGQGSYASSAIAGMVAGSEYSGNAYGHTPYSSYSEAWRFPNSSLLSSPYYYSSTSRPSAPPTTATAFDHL
Chain of Cytochrome P450 3A4 (P08684 whole entry, the tested form may be a part): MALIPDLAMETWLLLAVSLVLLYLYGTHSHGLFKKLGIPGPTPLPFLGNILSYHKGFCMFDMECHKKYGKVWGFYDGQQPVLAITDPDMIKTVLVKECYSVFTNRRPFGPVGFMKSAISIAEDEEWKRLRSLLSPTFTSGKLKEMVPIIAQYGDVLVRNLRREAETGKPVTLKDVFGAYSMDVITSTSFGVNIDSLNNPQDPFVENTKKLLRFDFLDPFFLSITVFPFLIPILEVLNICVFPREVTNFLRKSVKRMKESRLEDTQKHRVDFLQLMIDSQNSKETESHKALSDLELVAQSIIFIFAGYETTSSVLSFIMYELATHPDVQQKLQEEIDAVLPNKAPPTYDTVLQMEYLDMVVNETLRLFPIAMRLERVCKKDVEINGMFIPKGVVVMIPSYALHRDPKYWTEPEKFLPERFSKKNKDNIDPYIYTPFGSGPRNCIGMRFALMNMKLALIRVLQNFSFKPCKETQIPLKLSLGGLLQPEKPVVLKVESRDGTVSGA
Chain of Delta-type opioid receptor (P41143 whole entry): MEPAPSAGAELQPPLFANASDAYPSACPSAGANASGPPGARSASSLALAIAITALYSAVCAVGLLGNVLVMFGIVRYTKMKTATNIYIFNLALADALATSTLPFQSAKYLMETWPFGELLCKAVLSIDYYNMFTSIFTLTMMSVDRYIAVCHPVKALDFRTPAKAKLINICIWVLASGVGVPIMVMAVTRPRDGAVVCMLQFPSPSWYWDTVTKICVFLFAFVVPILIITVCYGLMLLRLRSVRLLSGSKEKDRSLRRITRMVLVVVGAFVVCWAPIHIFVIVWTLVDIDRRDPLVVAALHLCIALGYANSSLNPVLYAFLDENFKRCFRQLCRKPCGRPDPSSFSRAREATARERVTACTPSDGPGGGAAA

SMILES | IC50 (Caspase-3) | IC50 [5] | IC50 [6] | IC50 [7] | other results
CC1CN(C)C(C)c2c1oc1ccc(N)cc21 (stereo not given) |  |  |  |  | EC50 [1]: 841 nM (active); EC50 [2]: > 92.5 µM (inactive); EC50 (Mu-type opioid receptor): > 92.5 µM (inactive); EC50 [3]: > 92.5 µM (inactive); AC50 [4]: 9.06 µM (active)
CC(C)CSC1=NSC2=NC(=O)/C(=C\c3cccs3)C(=N)N12 | 26.8 µM (active) | 24.2 µM (active) | 14.9 µM (active) | 18.5 µM (active) | 
Oc1c(-c2cc(-c3ccco3)[nH]n2)ccc2ccccc12 | 59.7 µM (active) | 4.87 µM (active) | 15 µM (active) | 19.3 µM (active) | 
O=C(COc1ccc2ccccc2c1)Nc1ccccc1C(=O)O | 15.2 µM (active) | 13.4 µM (active) | 25.5 µM (active) | 43.4 µM (active) | CC50 [8]: 32.9 µM (active); IC50 (cells): 41.5 µM (active)
C[C@@H]1ON(C)[C@H]2C[C@H]3c4cc(-c5cc6ccccc6o5)ccc4CCN3C[C@@H]12 |  |  |  |  | AC50 [4]: 28.7 µM (active)
C[C@H](CO)N1C[C@H](C)[C@H](CN(C)S(=O)(=O)c2ccc(F)cc2)OCCCC[C@H](C)Oc2ccc(NS(=O)(=O)c3ccc(Cl)cc3)cc2C1=O |  |  |  |  | AC50 (Paired box protein Pax-8): 10.1 µM (active); AC50 [9]: 54.7 µM (active)
C/C(=N\NC(=O)c1ccc(Br)cc1)c1ccccc1 | 4.06 µM (active) | 4.62 µM (active) | 6.55 µM (active) | > 100 µM (inactive) | AC50 (Cytochrome P450 3A4): 15.8 µM (inconclusive)
O=C(O)Cc1sc(N/N=C\c2ccccc2)nc1-c1ccccc1 |  |  |  |  | IC50 [10]: 5.14 µM (active); IC50 [11]: 9.86 µM (active); IC50 [12]: 27.7 µM (active)
